Structures can show the parent of a compound that is named as a salt.

In this experiment the target is T1, Acetylcholinesterase (Rattus norvegicus, UniProt P37136).
T1 construct: the S1 fraction of a male Wistar rat cerebral cortex homogenate was used as a cholinesterase source; from tissue; host or cells: male Wistar rat cerebral cortex homogenate, S1 fraction
T1 sequence (P37136 32-614): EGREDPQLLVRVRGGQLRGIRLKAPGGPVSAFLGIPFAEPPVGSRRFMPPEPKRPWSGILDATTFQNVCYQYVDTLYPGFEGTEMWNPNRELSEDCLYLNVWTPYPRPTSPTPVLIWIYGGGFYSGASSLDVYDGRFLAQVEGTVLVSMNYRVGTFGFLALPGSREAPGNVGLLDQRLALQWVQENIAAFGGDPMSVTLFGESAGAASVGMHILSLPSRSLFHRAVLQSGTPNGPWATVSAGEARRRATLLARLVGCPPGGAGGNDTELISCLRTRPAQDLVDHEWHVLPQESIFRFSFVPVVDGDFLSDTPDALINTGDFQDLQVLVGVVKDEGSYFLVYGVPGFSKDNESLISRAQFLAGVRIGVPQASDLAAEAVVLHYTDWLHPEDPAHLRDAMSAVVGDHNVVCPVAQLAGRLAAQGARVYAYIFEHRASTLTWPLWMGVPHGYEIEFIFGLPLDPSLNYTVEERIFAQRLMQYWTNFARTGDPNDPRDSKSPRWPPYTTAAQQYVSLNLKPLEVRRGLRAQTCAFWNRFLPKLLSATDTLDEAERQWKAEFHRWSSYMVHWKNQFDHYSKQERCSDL
In words: Acetylcholinesterase inhibiting activity using (acetyl-[3H])-acetylcholine, S1 fraction of rat cerebral cortex homogenate. The experiment is classed as biochemical, male Wistar rat. The following applies: rat cerebral cortex homogenate S1 fraction; 30 minutes of incubation; read-out: Acetylcholinesterase inhibiting activity IC50. The procedure: The compounds according to the invention were examined for cholinesterase inhibiting activity using (acetyl-[^3 H])-acetylcholine. Thus, the S1 fraction of a male Wistar rat cerebral cortex homogenate was used as a cholinesterase source, and (acetyl-[^3 H])-acetylcholine (as substrate) and each test compound according to the invention were added and, after 30 minutes of incubation, the reaction was terminated. A toluene type scintillator was added, and the mixture was shaken, whereby the reaction product [^3 H]-acetic acid was transferred to the toluene layer. The cholinesterase activity was determined by counting said [^3 H]-acetic acid with a liquid scintillation counter.
The cholinesterase inhibiting activity of each test compound was expressed in terms of 50% inhibitory concentration (IC50).
For the compound `CCN(CCCCCNC(=O)/C=C/c1ccc(SC)cc1)Cc1ccccc1` [Compound 14-20], the half-maximal inhibitory concentration (IC50) is 21000 nM.

As to `CC(=O)Nc1ccc2c(c1)C(=O)N(CCCCN(C)Cc1ccccc1)C2=O` [Compound 5-1], the IC50 worked out at 11000 nM.

With `CCN(CCCCCN1C(=O)c2ccc(NS(C)(=O)=O)cc2C1=O)Cc1ccccc1` [Compound 11-6], the IC50 is 470 nM.

Regarding `CCN(CCCCCN1C(=O)c2ccc([N+](=O)[O-])cc2C1=O)Cc1ccccc1C` [Compound 2-23], the IC50 turned out to be 110 nM.

Consider `CCN(CCCCCNC(=O)/C=C/c1ccc(C)cc1)Cc1ccccc1` [Compound 14-15], for which the IC50 is 16000 nM.

As for `CCN(CCCCCN1C(=O)c2ccc(NC(=O)Cc3ccccc3)cc2C1=O)Cc1ccccc1` [Compound 11-3], the half-maximal inhibitory concentration (IC50) was determined as 1500 nM.

`CCN(CCCCCN1C(=O)c2ccc([N+](=O)[O-])cc2C1=O)Cc1cccc(OC)c1` [Compound 2-26]: the half-inhibitory concentration (IC50) was 45 nM.

For `O=C1c2ccc([N+](=O)[O-])cc2C(=O)N1CCCCN1CCc2ccccc2C1` [Compound 2-6], the IC50 amounted to 18000 nM.

For `CN(CCCCN1C(=O)c2ccc([N+](=O)[O-])cc2C1=O)Cc1ccccc1` [Compound 1, 2-[4-(N-Benzyl-N-methyl)aminobutyl]-5-nitro-1H--isoindole-1,3(2H)-dione hydrochloride], the half-inhibitory concentration (IC50) worked out at 9500 nM.

Regarding `CCN(CCCCCNC(=O)/C=C/c1ccc(Cl)cc1)Cc1ccccc1` [Compound 14-14], the IC50 turned out to be 16000 nM.

As to `CN(CCCCN1C(=O)c2ccc(N)cc2C1=O)Cc1ccccc1` [Compound 3, 5-Amino-2-[4-(N-benzyl-N-methyl)aminobutyl]-1H-isoindole-1,3(2H)-dione hydrochloride], the half-inhibitory concentration (IC50) stood at 34000 nM.

As for `CCN(CCCCCCN1C(=O)c2ccc([N+](=O)[O-])cc2C1=O)Cc1ccccc1` [Compound 2-14], the concentration for half-maximal inhibition (IC50) was determined as 660 nM.

Consider `CCN(CCCCCN1C(=O)c2ccc([N+](=O)[O-])cc2C1=O)Cc1cccc(OC)c1OC` [Compound 2-27], for which the IC50 turned out to be 270 nM.

`CCN(CCCCCNC(=O)/C=C/c1ccc(NC(C)=O)cc1)Cc1ccccc1` [Compound 21-2]: the IC50 came out at 5700 nM.

`CCN(CCCNC(=O)/C=C/c1ccc([N+](=O)[O-])cc1)Cc1ccccc1` [Compound 14-9]: the half-inhibitory concentration (IC50) came out at 11000 nM.

For the compound `CCN(CCCCCNC(=O)/C=C/c1cccc([N+](=O)[O-])c1)Cc1ccccc1` [Compound 14-13], the 50% inhibitory concentration (IC50) was found to be 3000 nM.

In the case of `CCN(CCCCCN(C(C)=O)C(=O)/C=C/c1cccc(OC)c1)Cc1ccccc1` [Compound 16-7], the IC50 is 5800 nM.

`CN(CCCCCCN1C(=O)c2ccc([N+](=O)[O-])cc2C1=O)Cc1ccccc1` [Compound 2-9]: the IC50 was found to be 480 nM.

Turning to `CCN(CCCCCN(C(C)=O)C(=O)/C=C/c1ccc(Cl)cc1)Cc1ccccc1` [Compound 16-5], the IC50 was found to be 2200 nM.

As to `CCN(CCCCCNC(=O)/C=C/c1ccc(O)cc1)Cc1ccccc1` [Compound 14-17], the IC50 was found to be 13000 nM.

Consider `CCN(CCCCCNC(=O)/C=C/c1cccc(N)c1)Cc1ccccc1` [Compound 20-1], for which the IC50 worked out at 19000 nM.

With `CCN(CCCCCN1C(=O)c2ccc([N+](=O)[O-])cc2C1=O)Cc1cccc(Cl)c1` [Compound 2-20], the IC50 is 240 nM.

`CCN(CCCCCN(C(C)=O)C(=O)/C=C/c1ccc([N+](=O)[O-])c(O)c1)Cc1ccccc1` [Compound 16-9]: the concentration for half-maximal inhibition (IC50) was determined as 350 nM.

`CCN(CCCCCN1C(=O)c2ccc([N+](=O)[O-])cc2C1=O)Cc1ccccc1F` [Compound 2-22]: the IC50 turned out to be 270 nM.

`CCN(CCCCCN(C(C)=O)C(=O)/C=C/c1cccc(N)c1)Cc1ccccc1` [Compound 20-2]: the IC50 stood at 2400 nM.

Consider `CN(CCCCN1C(=O)c2ccc(NS(=O)(=O)Cc3ccccc3)cc2C1=O)Cc1ccccc1` [Compound 5-3], for which the half-inhibitory concentration (IC50) worked out at 9200 nM.

Regarding `CCN(CCCCCNC(=O)/C=C/c1ccc([N+](=O)[O-])cc1)Cc1ccccc1OC` [Compound 18-2], the half-inhibitory concentration (IC50) was 290 nM.

Consider `CCN(CCCCCNC(=O)/C=C/c1ccc(OC)c(OC)c1)Cc1ccccc1OC` [Compound 18-5], for which the half-inhibitory concentration (IC50) is 430 nM.

With `CN(CCCCNC(=O)/C=C/c1cccc([N+](=O)[O-])c1)Cc1ccccc1` [Compound 14-1], the IC50 was 13000 nM.

As to `CCCN(CCCCN1C(=O)c2ccc([N+](=O)[O-])cc2C1=O)Cc1ccccc1` [Compound 2-16], the 50% inhibitory concentration (IC50) came to 1900 nM.

Regarding `CCN(CCCCCNC(=O)/C=C/c1cc(OC)c(OC)c(OC)c1)Cc1ccccc1` [Compound 14-23], the half-inhibitory concentration (IC50) was found to be 4100 nM.

Take `CCN(CCCCCN1C(=O)c2ccc(OC(C)=O)cc2C1=O)Cc1ccccc1` [Compound 12-5]: the IC50 amounted to 2100 nM.

For `CC(C)N(CCCCCN1C(=O)c2ccc([N+](=O)[O-])cc2C1=O)Cc1ccccc1` [Compound 2-12], the IC50 came out at 830 nM.

With `CCN(CCCCN(C(C)=O)C(=O)/C=C/c1ccc([N+](=O)[O-])cc1)Cc1ccccc1` [Compound 16-1], the 50% inhibitory concentration (IC50) was 7300 nM.

As to `CCN(CCCCCN(C(C)=O)C(=O)/C=C/c1ccc(S(C)(=O)=O)cc1)Cc1ccccc1` [Compound 16-8], the IC50 is 170 nM.

For `CCN(CCCCCCCNC(=O)/C=C/c1ccc([N+](=O)[O-])cc1)Cc1ccccc1` [Compound 14-10], the half-inhibitory concentration (IC50) is 15000 nM.

On to `CCN(CCCCCN1C(=O)c2ccc(O)cc2C1=O)Cc1ccccc1` [Compound 12-4], for which the half-inhibitory concentration (IC50) worked out at 2500 nM.

Consider `CCN(CCCCCN1C(=O)c2ccc([N+](=O)[O-])cc2C1=O)Cc1ccc(OC)cc1` [Compound 2-18], for which the IC50 stood at 270 nM.

As to `CCN(CCCCCNC(=O)/C=C/c1ccccc1[N+](=O)[O-])Cc1ccccc1` [Compound 14-12], the IC50 was 3900 nM.

On to `CCN(CCCCCNC(=O)/C=C/c1ccc(C#N)cc1)Cc1ccccc1` [Compound 14-16], for which the IC50 is 5000 nM.

As to `CCN(CCCCCNC(=O)/C=C/c1ccc(S(C)(=O)=O)cc1)Cc1ccccc1OC` [Compound 18-3], the half-inhibitory concentration (IC50) amounted to 230 nM.

For the compound `CCN(CCCCCN1C(=O)c2ccc(NC(=O)c3ccccc3)cc2C1=O)Cc1ccccc1` [Compound 11-2], the IC50 was found to be 730 nM.

In the case of `CN(CCCCCCCN1C(=O)c2ccc([N+](=O)[O-])cc2C1=O)Cc1ccccc1` [Compound 2-10], the IC50 is 1800 nM.

`CCN(CCCCCN(C(C)=O)C(=O)/C=C/c1ccc(C#N)cc1)Cc1ccccc1` [Compound 16-6]: the half-inhibitory concentration (IC50) amounted to 460 nM.

`CCN(CCCCN1C(=O)c2ccc([N+](=O)[O-])cc2C1=O)Cc1ccccc1` [Compound 2-3]: the concentration for half-maximal inhibition (IC50) was 250 nM.

`CCN(CCCCCN1C(=O)c2ccc([N+](=O)[O-])cc2C1=O)Cc1ccc(Cl)cc1` [Compound 2-19]: the IC50 turned out to be 240 nM.

`CCN(CCCN1C(=O)c2ccc([N+](=O)[O-])cc2C1=O)Cc1ccccc1` [Compound 2-13]: the concentration for half-maximal inhibition (IC50) is 10000 nM.

Take `O=C1c2ccc([N+](=O)[O-])cc2C(=O)N1CCCCNCc1cccc2ccccc12` [Compound 8-2]: the IC50 was 2900 nM.

In the case of `CCN(CCCCCN1C(=O)c2ccc(C)cc2C1=O)Cc1ccccc1` [Compound 12-11], the IC50 came out at 1800 nM.

As to `CCC(=O)N(CCCCCN(CC)Cc1ccccc1)C(=O)/C=C/c1ccc([N+](=O)[O-])cc1` [Compound 19-1], the 50% inhibitory concentration (IC50) was 4300 nM.

As for `CCN(CCCCCN1C(=O)c2ccc(C(=O)c3ccccc3)cc2C1=O)Cc1ccccc1` [Compound 12-10], the IC50 was found to be 1100 nM.

Regarding `CCN(CCCCCN1C(=O)c2ccc(C(=O)O)cc2C1=O)Cc1ccccc1` [Compound 12-8, 2-[5-(N-benzyl-N-ethyl)aminopentyl]-1,3-dioxo-1H-isoindole-5-carboxylic acid hydrochloride], the IC50 was found to be 8800 nM.

With `CCN(CCCCCCCN1C(=O)c2ccc([N+](=O)[O-])cc2C1=O)Cc1ccccc1` [Compound 2-15], the IC50 was determined as 4600 nM.

Take `CCN(CCCCCNC(=O)/C=C/c1ccc(C#N)cc1)Cc1ccccc1OC` [Compound 18-4]: the IC50 came out at 370 nM.

`CCN(CCCCCN(C(C)=O)C(=O)/C=C/c1ccc([N+](=O)[O-])cc1)Cc1ccccc1` [Compound 16-2]: the half-maximal inhibitory concentration (IC50) is 560 nM.

On to `CCN(CCCCCN(C(C)=O)C(=O)/C=C/c1ccc([N+](=O)[O-])c(OC(C)=O)c1)Cc1ccccc1` [Compound 16-10], for which the 50% inhibitory concentration (IC50) is 280 nM.

Take `CC(C)N(CCCCN1C(=O)c2ccc([N+](=O)[O-])cc2C1=O)Cc1ccccc1` [Compound 2-7]: the IC50 amounted to 490 nM.

For the compound `CCN(CCCCCNC(=O)/C=C/c1ccc([S+](C)[O-])cc1)Cc1ccccc1` (stereo not drawn) [Compound 14-21], the concentration for half-maximal inhibition (IC50) was 7500 nM.

On to `CCN(CCCCCNC(=O)/C=C/c1ccc(S(C)(=O)=O)cc1)Cc1ccccc1` [Compound 14-22], for which the IC50 worked out at 3200 nM.

Regarding `CCN(CCCCCN1C(=O)c2cccc([N+](=O)[O-])c2C1=O)Cc1ccccc1` [Compound 12-3], the half-inhibitory concentration (IC50) stood at 680 nM.

`CCN(CCCCCN1C(=O)c2ccc([N+](=O)[O-])cc2C1=O)Cc1cccc2ccccc12` [Compound 2-28]: the concentration for half-maximal inhibition (IC50) was determined as 110 nM.

Turning to `CCN(CCCCCN1C(=O)c2ccc([N+](=O)[O-])cc2C1=O)Cc1ccccc1Cl` [Compound 2-21], the IC50 is 130 nM.

With `CCN(CCCCCN1C(=O)c2ccc(N)cc2C1=O)Cc1ccccc1` [Compound 10, 5-Amino-2-[5-(N-benzyl-N-ethyl)aminopentyl]-1H -isoindole-1,3(2H)-dione dihydrochloride], the IC50 came out at 1200 nM.

For `CCN(CCCCCNC(=O)/C=C/c1ccc(OC)cc1)Cc1ccccc1` [Compound 14-18], the IC50 was 16000 nM.

On to `CN(CCCCCN1C(=O)c2ccc([N+](=O)[O-])cc2C1=O)Cc1ccccc1` [Compound 2-2], for which the concentration for half-maximal inhibition (IC50) came out at 1400 nM.

With `CCN(CCCCCN1C(=O)c2ccc(NS(=O)(=O)Cc3ccccc3)cc2C1=O)Cc1ccccc1` [Compound 11-5], the half-maximal inhibitory concentration (IC50) stood at 240 nM.

What is called IC50 is the concentration that inhibits the measured activity by half.

Values taken from US5025033A, “Alkylene diamines” (Takeda Chemical Industries, Ltd., priority 1988, dated 1991).
